From patent publication US20150225377A1, “VEGFR3 INHIBITORS” (CANCER THERAPEUTICS CRC PTY LIMITED, priority 2012, published 2015)

Target: T1, VEGFR3 (Homo sapiens, UniProt P35916)
T1 construct: host or cells: HMVEC-dLyAD
Assay: VEGFR3 Phospho ELISA assay in HMVEC-dLyAD cells, VEGFC stimulated
Format: cell-based
Conditions: 1 hour compound, 250 ng/mL VEGFC 10 minutes
Experimental: Adult human dermal lymphatic microvascular endothelial cells (HMVEC-dLyAD) (Cat#CC-2810, Lonza) were seeded into clear-bottom, TC treated 12 well plates (Cat #665180, Greiner Bio-One) in EGM-2MV (Cat#CC-3202, Lonza) at 180,000 cells/well (volume 1 mL), and the plates incubated at 37° C. and 5% CO2 for 6 hours. The media was replaced with EBM-2 (Cat #CC-3156, Lonza)+0.1% BSA (Cat#A8412, Sigma) and cells incubated for a further period (overnight at 37° C. and 5% CO2).
96 well Maxisorp immuno plates (Cat #439454, Nunc) were coated with 100 μL of Total VEGFR3 capture antibody (Part #841888, Human Total VEGFR3/FLT4 ELISA Kit, Cat #DYC3491, R&D Systems), or Phospho VEGFR3 Capture antibody (Part #841885, Human Phospho VEGFR3/FLT4 ELISA Kit, Cat#DYC2724, R&D Systems). The plates were covered and incubated at room temperature overnight.
The coating antibody was flicked out and the plates washed three times with Wash Buffer (Phosphate buffered saline (137 mM NaCl, […], […], […], pH 7.2-7.4), 0.05% Tween 20). 300 μL of blocking buffer (5% v/v Tween 20, 5% w/v sucrose in PBS) was then added to wells and plate incubated for 2 hours at room temperature. Blocking solution is flicked out and plates washed three times and tapped dry.
Compound dilution series were prepared in EBM-2 (Cat #CC-3156, Lonza)+0.1% BSA (Cat#A8412, Sigma) with constant 0.1% DMSO concentration. 439 μL of sample or vehicle control was added to the cell monolayers. Cells are treated for 1 hour at 37° C. and 5% CO2. 250 ng/mL Recombinant human VEGFC (Cat #2179-VC, R & D Systems) added to wells and plates incubated for an additional 10 minutes at 37° C. and 5% CO2.
The media and compounds were removed and the cell monolayer washed once in Dulbecco's Phosphate Buffered Saline (Cat #21600-044, Invitrogen). 130 μL of Lysis buffer added to wells and cell lysate harvested and transferred to tubes and stored on ice. Complete lysis buffer was prepared by adding 10 μL Protease Inhibitor Cocktail (Cat #P8340, Sigma-Aldrich), 10 μL PMSF (Phenylmethanesulfonyl fluoride, Cat #P7626, Sigma-Aldrich, prepared as 500 mM DMSO stock) per 1 mL of Phosphosafe™ Extraction Reagent (Cat #71296, Merck).
The harvested samples were then diluted 1:2 in IC Diluent #18 (5% Tween 20/PBS) and 100 μL transferred to the Total and Phospho VEGFR3 coated, blocked and washed 96 well plates and incubated for 2 hours at room temperature. The plates were then washed three times in wash buffer as described above and tapped dry.
For detection of Total VEGFR3100 μL of Detection antibody (Total VEGFR3 Detection Antibody Part#841888 in Total VEGFR3 kit) diluted in IC Diluent #1 (1% w/v BSA (Cat #A7906, Sigma-Aldrich)/PBS) was added to wells and the plate incubated for 2 hours at room temperature. The plate was then washed three times in wash buffer and tapped dry. 100 μL of streptavidin-HPR diluted in IC diluent #1 Streptavidin-HRP, Part #890803 in Total VEGFR3 kit) was added to wells and incubated at room temperature for 20 minutes followed by washing as described above 100 μL Substrate solution (3,3′,5,5′-Tetramethylbenzidine (TMB) Liquid Substrate System for ELISA, Cat #T0440, Sigma-Aldrich) was added and the plate incubated for 20 minutes in the dark at room temperature followed by the addition of 50 μL stop solution (2 M H2SO4).
Total VEGFR3 levels were quantified using a Multiskan Ascent plate reader and Ascent software fitted with 450 nm filter.
For detection of Phospho VEGFR3, 100 μL of Detection antibody (Anti-Phospho-Tyrosine-HRP Detection Antibody, Part #841403 in Phospho VEGFR3 kit) was diluted in IC Diluent #1 (1% w/v BSA/PBS), added to the wells and the plate incubated for 2 hours at room temperature. The plate was then washed three times in wash buffer as described above and tapped dry. […]

T1 sequence (P35916 25-1363): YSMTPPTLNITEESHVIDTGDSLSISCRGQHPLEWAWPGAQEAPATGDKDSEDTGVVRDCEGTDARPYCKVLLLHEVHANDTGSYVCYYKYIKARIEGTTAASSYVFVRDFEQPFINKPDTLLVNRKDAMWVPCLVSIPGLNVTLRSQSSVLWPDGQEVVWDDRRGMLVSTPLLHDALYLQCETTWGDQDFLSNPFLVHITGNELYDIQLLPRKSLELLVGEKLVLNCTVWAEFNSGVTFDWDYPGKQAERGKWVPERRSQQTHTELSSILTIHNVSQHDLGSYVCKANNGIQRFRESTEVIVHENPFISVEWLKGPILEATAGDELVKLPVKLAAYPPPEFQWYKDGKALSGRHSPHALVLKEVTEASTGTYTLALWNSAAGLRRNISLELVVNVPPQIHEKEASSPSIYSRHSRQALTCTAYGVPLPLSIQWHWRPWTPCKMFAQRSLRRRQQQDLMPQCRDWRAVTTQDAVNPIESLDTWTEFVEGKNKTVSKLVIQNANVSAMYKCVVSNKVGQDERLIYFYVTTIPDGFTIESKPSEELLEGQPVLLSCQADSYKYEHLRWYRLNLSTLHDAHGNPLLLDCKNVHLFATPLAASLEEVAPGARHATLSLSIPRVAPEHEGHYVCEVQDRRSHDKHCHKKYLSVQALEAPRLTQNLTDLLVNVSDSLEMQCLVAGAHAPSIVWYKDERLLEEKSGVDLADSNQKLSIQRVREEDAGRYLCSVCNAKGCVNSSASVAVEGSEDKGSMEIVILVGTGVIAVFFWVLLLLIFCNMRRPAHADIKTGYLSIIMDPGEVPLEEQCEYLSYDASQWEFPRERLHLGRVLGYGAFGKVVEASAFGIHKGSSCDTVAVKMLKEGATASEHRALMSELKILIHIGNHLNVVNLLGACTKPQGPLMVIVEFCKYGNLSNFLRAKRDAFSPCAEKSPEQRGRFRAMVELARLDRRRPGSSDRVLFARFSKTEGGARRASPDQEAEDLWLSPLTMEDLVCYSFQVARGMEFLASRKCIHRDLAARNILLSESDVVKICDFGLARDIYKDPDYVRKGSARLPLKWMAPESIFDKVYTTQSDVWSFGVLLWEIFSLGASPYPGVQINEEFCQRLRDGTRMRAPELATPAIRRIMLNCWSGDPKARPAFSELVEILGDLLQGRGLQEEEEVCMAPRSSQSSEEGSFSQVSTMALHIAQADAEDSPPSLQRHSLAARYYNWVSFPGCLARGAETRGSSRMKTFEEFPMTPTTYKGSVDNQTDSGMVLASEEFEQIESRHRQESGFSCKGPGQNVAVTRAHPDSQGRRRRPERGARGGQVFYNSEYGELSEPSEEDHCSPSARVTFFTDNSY

SMILES	IC50 [nM]
Cc1cnc(Nc2ccc(N3CCNCC3)cc2)nc1CCc1ccccc1CC(N)=O [Compound 2, 2-(2-(2-(5-methyl-2-((4-(piperazin-1-yl)phenyl)amino)pyrimidin-4-yl)ethyl)phenyl)acetamide]	121
NCc1ccc(Nc2ncc(C(F)(F)F)c(CCc3ccccc3CC(N)=O)n2)cc1 [Compound 3, 2-(2-(2-(2-((4-(Aminomethyl)phenyl)amino)-5-(trifluoromethyl)pyrimidin-4-yl)ethyl)phenyl)acetamide]	156
Cc1cnc(Nc2ccc(C3CCNCC3)nc2)nc1CCc1ccccc1CC(N)=O [Compound 4, 2-(2-(2-(5-methyl-2-((6-(piperidin-4-yl)pyridin-3-yl)amino)pyrimidin-4-yl)ethyl)phenyl)acetamide]	2220
Cc1cnc(Nc2ccc(C3CCN(C)CC3)nc2)nc1CCc1ccccc1CC(N)=O [Compound 5, 2-(2-(2-(5-methyl-2-((6-(1-methylpiperidin-4-yl)pyridin-3-yl)amino)pyrimidin-4-yl)ethyl)phenyl)acetamide]	210
NC(=O)Cc1ccccc1CCc1nc(Nc2ccc(C(=O)N3CCNCC3)cc2)ncc1C(F)(F)F [Compound 6, 2-(2-(2-(2-((4-(piperazine-1-carbonyl)phenyl)amino)-5-(trifluoromethyl)pyrimidin-4-yl)ethyl)phenyl)acetamide]	62
Cc1cc(Nc2ncc(C(F)(F)F)c(CCc3ccccc3CC(N)=O)n2)ccc1C1CCNCC1 [Compound 11, 2-(2-(2-(2-((3-methyl-4-(piperidin-4-yl)phenyl)amino)-5-(trifluoromethyl)pyrimidin-4-yl)ethyl)phenyl)acetamide]	39
Cc1cc(Nc2ncc(C(F)(F)F)c(CCc3ccccc3CC(N)=O)n2)ccc1C1CCN(C)CC1 [Compound 12, 2-(2-(2-(2-((3-methyl-4-(1-methylpiperidin-4-yl)phenyl)amino)-5-(trifluoromethyl)pyrimidin-4-yl)ethyl)phenyl)acetamide]	116
Cc1cnc(Nc2ccc(C3CCNCC3)cc2)nc1CCc1ccccc1CC(N)=O [Compound 16, 2-(2-(2-(5-methyl-2-((4-(piperidin-4-yl)phenyl)amino)pyrimidin-4-yl)ethyl)phenyl)acetamide]	214
CC(N)c1ccc(Nc2ncc(C(F)(F)F)c(CCc3ccccc3CC(N)=O)n2)cc1 (stereo not drawn) [Compound 18, 2-(2-(2-(2-(4-(1-aminoethyl)phenylamino)-5-(trifluoromethyl)pyrimidin-4-yl)ethyl)phenyl)acetamide]	18
Cc1cnc(Nc2cccnc2)nc1CCc1ccccc1CC(N)=O [Compound 24, 2-(2-(2-(5-methyl-2-(pyridin-3-ylamino)pyrimidin-4-yl)ethyl)phenyl)acetamide]	169
Cc1cnc(Nc2ccc(OC3CCNCC3)cc2)nc1CCc1ccccc1CC(N)=O [Compound 26, 2-(2-(2-(5-methyl-2-((4-(piperidin-4-yloxy)phenyl)amino)pyrimidin-4-yl)ethyl)phenyl)acetamide]	83
Cc1cnc(Nc2cnn(C)c2)nc1CCc1ccccc1CC(N)=O [Compound 28, 2-(2-(2-(5-methyl-2-((1-methyl-^1H-pyrazol-4-yl)amino)pyrimidin-4-yl)ethyl)phenyl)acetamide]	190
Cc1cnc(Nc2ccc(C3(N)COC3)cc2)nc1CCc1ccccc1CC(N)=O [Compound 31, 2-(2-(2-(2-(4-(3-aminooxetan-3-yl)phenylamino)-5-methylpyrimidin-4-yl)ethyl)phenyl)acetamide]	107
Cc1cnc(Nc2cnn(C3CCNCC3)c2)nc1CCc1ccccc1CC(N)=O [Compound 33, 2-(2-(2-(5-Methyl-2-((1-(piperidin-4-yl)-^1H-pyrazol-4-yl)amino)pyrimidin-4-yl)ethyl)phenyl)acetamide]	1250
CC(N)c1ccc(Nc2ncc(Cl)c(CCc3ccccc3CC(N)=O)n2)cc1 (stereo not drawn) [Compound 37, 2-(2-(2-(2-(4-(1-aminoethyl)phenylamino)-5-chloropyrimidin-4-yl)ethyl)phenyl)acetamide]	26
